Measured values reported in publication PMC6116705, “Design, synthesis, in vitro antiproliferative activity and apoptosis-inducing studies of 1-(3′,4′,5′-trimethoxyphenyl)-3-(2′-alkoxycarbonylindolyl)-2-propen-1-one derivatives obtained by a molecular hybridisation approach” (Journal of Enzyme Inhibition and Medicinal Chemistry, 2018).
Read-outs that look alike come from different tables or passages of the source.

Key:
[1] = tested on: human cervix carcinoma (HeLa) cells; assay: Antiproliferative assay, cell counting (Coulter Counter), HeLa; type: cell-based; conditions: read-out: IC50, inhibition of proliferation
Experimental: (§1) Human cervix carcinoma (HeLa), human colon carcinoma (HT29), human breast carcinoma (MCF-7) and human lymphoma (HL-60) cells (3–5 × 10^4 cells) and a serial (five-fold) dilution of the test compounds were added to a 96-well microtiter plate. The cells were incubated for 72–96 h (depending on the tumor cell line) at 37 °C in a humidified 5% CO2 atmosphere. At the end of the incubation period, the cells were counted in a Coulter Counter (Coulter Electronics Ltd, Harpenden Herts, UK). […] The IC50 values represent the average (±standard deviation) of at least two to four independent experiments.

[2] = tested on: human colon adenocarcinoma (HT29) cells; assay: Antiproliferative assay, cell counting (Coulter Counter), HT29; type: cell-based; conditions: read-out: IC50, inhibition of proliferation
Experimental: as §1

[3] = tested on: human breast adenocarcinoma (MCF-7) cells; assay: Antiproliferative assay, cell counting (Coulter Counter), MCF-7; type: cell-based; conditions: read-out: IC50, inhibition of proliferation
Experimental: as §1

[4] = tested on: human promyelocytic leukemia (HL-60) cells; assay: Antiproliferative assay, cell counting (Coulter Counter), HL-60; type: cell-based; conditions: read-out: IC50, inhibition of proliferation
Experimental: as §1

bovine brain tubulin = assay: Inhibition of tubulin polymerisation (turbidimetric tubulin assembly); type: biochemical; conditions: tubulin 10 µM, 20 min at 30 °C; read-out: Tubulin assembly IC50±SD
Experimental: (§2) To evaluate the effect of the compounds on tubulin assembly in vitro[40], varying concentrations of compounds were preincubated with 10 μM bovine brain tubulin in 0.8M monosodium glutamate (pH adjusted to 6.6 with HCl in a 2.0M stock solution) at 30 °C and then cooled to 0 °C. After addition of 0.4 mM GTP, the mixtures were transferred to 0 °C cuvettes in a recording spectrophotometer and warmed to 30 °C. Tubulin assembly was followed turbidimetrically at 350 nm. […] The capacity of the test compounds to inhibit colchicine binding to tubulin was measured as described. The reaction mixtures contained 1 μM tubulin, 5 μM [^3H]colchicine and 5 μM test compound.

[5] = tested on: tubulin (colchicine site); assay: Inhibition of [3H]colchicine binding to tubulin; set-up: species or system bovine; conditions: tubulin 1 µM, [3H]colchicine 5 µM, compound 5 µM
Experimental: as §2

[6] = tested on: U251 glioblastoma cancer cell line; set-up: method as in PMID 27343855; conditions: read-out: IC50, antiproliferative activity; cited from earlier work
[7] = Homo sapiens, reference compounds in nM
[8] = Homo sapiens, HL-60, reference compounds in nM
[9] = Homo sapiens, HT-29, HT29, 72–96 h
[10] = Homo sapiens, MCF7, MCF-7, 72–96 h

| Molecule | melting point | IC50 ([1]; Homo sapiens, 72–96 h) | IC50 [2, 9] | IC50 [3, 10] | IC50 ([4]; Homo sapiens, HL-60, 72–96 h) | also measured |
| --- | --- | --- | --- | --- | --- | --- |
| COc1ccc2c(/C=C/C(=O)c3cc(OC)c(OC)c(OC)c3)c[nH]c2c1 [4a, reference compound] | – | – | – | – | – | IC50 [1, 7]: 81 ± 2 nM; IC50 ([2]; Homo sapiens, HT-29, HT29, reference compounds in nM): 60 ± 3 nM; IC50 ([3]; Homo sapiens, MCF7, MCF-7, reference compounds in nM): 49 ± 4 nM; IC50 [4, 8]: 23 ± 1 nM |
| COc1ccc(/C=C\c2cc(OC)c(OC)c(OC)c2)cc1O [CA-4, combretastatin A-4, reference compound] | – | – | – | – | – | IC50 [1, 7]: 4 ± 1 nM; IC50 [4, 8]: 1 ± 0.2 nM; IC50 (bovine brain tubulin): […]; Colchicine binding % ±SD (inhibition) [5]: 98 ± 0.9% |
| COC(=O)c1[nH]c2ccccc2c1/C=C/C(=O)c1cc(OC)c(OC)c(OC)c1 [Compound 9a, (E)-Methyl 3-(3-oxo-3-(3,4,5-trimethoxyphenyl)prop-1-en-1-yl)-1H-indole-2-carboxylate] | – | 2000 ± 1000 nM | 7300 ± 1200 nM | 1100 ± 400 nM | 4400 nM | – |
| CCOC(=O)c1[nH]c2ccccc2c1/C=C/C(=O)c1cc(OC)c(OC)c(OC)c1 [Compound 9b, (E)-Ethyl 3-(3-oxo-3-(3,4,5-trimethoxyphenyl)prop-1-en-1-yl)-1H-indole-2-carboxylate] | – | 2100 ± 800 nM | 440 ± 330 nM | 1800 ± 1500 nM | – | – |
| COC(=O)c1[nH]c2ccc(OC)cc2c1/C=C/C(=O)c1cc(OC)c(OC)c(OC)c1 [Compound 9c, (E)-Methyl 5-methoxy-3-(3-oxo-3-(3,4,5-trimethoxyphenyl)prop-1-en-1-yl)-1H-indole-2-carboxylate] | – | 2400 ± 600 nM | 1000 ± 700 nM | 590 nM | 27000 ± 1000 nM | IC50 (bovine brain tubulin): > 20 µM; Colchicine binding % ±SD (inhibition) [5]: 5.3 ± 4% |
| COC(=O)c1c(/C=C/C(=O)c2cc(OC)c(OC)c(OC)c2)c2ccc(OC)cc2n1C [Compound 9j, (E)-Methyl 6-methoxy-1-methyl-3-(3-oxo-3-(3,4,5-trimethoxyphenyl)prop-1-en-1-yl)-1H-indole-2-carboxylate] | 135 to 136 °C | ≥ 100000 nM | 31000 ± 22000 nM | 11000 ± 4000 nM | 14000 ± 10000 nM | – |
| CCn1c(C(=O)OC)c(/C=C/C(=O)c2cc(OC)c(OC)c(OC)c2)c2ccccc21 [Compound 9k, (E)-Methyl 1-ethyl-3-(3-oxo-3-(3,4,5-trimethoxyphenyl)prop-1-en-1-yl)-1H-indole-2-carboxylate] | 115 to 117 °C | 9400 ± 3100 nM | 6700 ± 1200 nM | 11000 ± 10000 nM | 37000 ± 1000 nM | – |
| CCn1c(C(=O)OC)c(/C=C/C(=O)c2cc(OC)c(OC)c(OC)c2)c2cc(OC)ccc21 [Compound 9l, (E)-Methyl 1-ethyl-5-methoxy-3-(3-oxo-3-(3,4,5-trimethoxyphenyl)prop-1-en-1-yl)-1H-indole-2-carboxylate] | 141 to 142 °C | 6800 ± 2600 nM | 10000 ± 6000 nM | 93000 ± 1000 nM | 26000 ± 15000 nM | – |
| CCOC(=O)c1c(/C=C/C(=O)c2cc(OC)c(OC)c(OC)c2)c2cc(OC)ccc2n1CC [Compound 9m, (E)-Ethyl 1-ethyl-5-methoxy-3-(3-oxo-3-(3,4,5-trimethoxyphenyl)prop-1-en-1-yl)-1H-indole-2-carboxylate] | 160 to 161 °C | 24000 ± 2000 nM | 14000 ± 6000 nM | 26000 ± 4000 nM | 19000 ± 10000 nM | – |
| CCn1c(C(=O)OC)c(/C=C/C(=O)c2cc(OC)c(OC)c(OC)c2)c2ccc(OC)cc21 [Compound 9n, (E)-Methyl 1-ethyl-6-methoxy-3-(3-oxo-3-(3,4,5-trimethoxyphenyl)prop-1-en-1-yl)-1H-indole-2-carboxylate] | 157 to 158 °C | 24000 ± 15000 nM | 19000 ± 9000 nM | 36000 ± 23000 nM | 47000 ± 11000 nM | – |
| COc1ccc2[nH]c(C)c(/C=C/C(=O)c3cc(OC)c(OC)c(OC)c3)c2c1 [compound 3] | – | – | – | – | – | IC50 [6]: > 10 µM |
| (E)-Methyl 1-benzyl-6-methoxy-3-(3-oxo-3-(3,4,5-trimethoxyphenyl)prop-1-en-1-yl)-1H-indole-2-carboxylate [Compound 9r] | – | – | – | – | – | IC50 ([1]; 72–96 h): 26000 ± 4000 nM; IC50 ([2]; HT29, 72–96 h): 27000 ± 2000 nM; IC50 ([3]; MCF-7, 72–96 h): 28000 ± 3000 nM; IC50 ([4]; HL-60, 72–96 h): 32000 ± 3000 nM |

The next lines start with results.

| melting point | Molecule | IC50 ([1]; Homo sapiens, 72–96 h) | IC50 [2, 9] | IC50 [3, 10] | IC50 ([4]; Homo sapiens, HL-60, 72–96 h) | also measured |
| --- | --- | --- | --- | --- | --- | --- |
| 147 to 149 °C | COC(=O)c1c(/C=C/C(=O)c2cc(OC)c(OC)c(OC)c2)c2ccccc2n1C [Compound 9g, (E)-Methyl 1-methyl-3-(3-oxo-3-(3,4,5-trimethoxyphenyl)prop-1-en-1-yl)-1H-indole-2-carboxylate] | 69000 ± 12000 nM | 10000 ± 4000 nM | 6700 ± 3000 nM | 67000 ± 46000 nM | – |
| 138 to 140 °C | CCOC(=O)c1c(/C=C/C(=O)c2cc(OC)c(OC)c(OC)c2)c2ccccc2n1C [Compound 9h, (E)-Ethyl 1-methyl-3-(3-oxo-3-(3,4,5-trimethoxyphenyl)prop-1-en-1-yl)-1H-indole-2-carboxylate] | 41000 ± 11000 nM | 5000 ± 1400 nM | 8300 ± 2300 nM | 58000 ± 40000 nM | – |
| 150 to 151 °C | COC(=O)c1c(/C=C/C(=O)c2cc(OC)c(OC)c(OC)c2)c2cc(OC)ccc2n1C [Compound 9i, (E)-Methyl 5-methoxy-1-methyl-3-(3-oxo-3-(3,4,5-trimethoxyphenyl)prop-1-en-1-yl)-1H-indole-2-carboxylate] | 25000 ± 3000 nM | 22000 ± 1000 nM | 2700 ± 900 nM | 28000 ± 3000 nM | – |
| 166 to 168 °C | COC(=O)c1c(/C=C/C(=O)c2cc(OC)c(OC)c(OC)c2)c2ccccc2n1Cc1ccccc1 [Compound 9o, (E)-Methyl 1-benzyl-3-(3-oxo-3-(3,4,5-trimethoxyphenyl)prop-1-en-1-yl)-1H-indole-2-carboxylate] | 8200 ± 1500 nM | 11000 ± 6000 nM | 71000 ± 18000 nM | 41000 ± 25000 nM | – |
| 128 to 130 °C | CCOC(=O)c1c(/C=C/C(=O)c2cc(OC)c(OC)c(OC)c2)c2ccccc2n1Cc1ccccc1 [Compound 9p, (E)-Ethyl 1-benzyl-3-(3-oxo-3-(3,4,5-trimethoxyphenyl)prop-1-en-1-yl)-1H-indole-2-carboxylate] | 61000 ± 41000 nM | 9200 ± 4700 nM | 50000 ± 4000 nM | 9000 ± 5100 nM | – |
| 170 to 171 °C | COC(=O)c1c(/C=C/C(=O)c2cc(OC)c(OC)c(OC)c2)c2cc(OC)ccc2n1Cc1ccccc1 [Compound 9q, (E)-Methyl 1-benzyl-5-methoxy-3-(3-oxo-3-(3,4,5-trimethoxyphenyl)prop-1-en-1-yl)-1H-indole-2-carboxylate] | 15000 ± 7000 nM | 18000 ± 10000 nM | 48000 ± 8000 nM | 39000 ± 27000 nM | – |
